# Patent publication US12215129B2, “Antibacterial cyclopeptides targeting acinetobacter and other gram-negative pathogens” (priority 2020, dated 2025)
# Several values for one entry are separate records, joined by “and”; a condition that tells them apart may be missing. Identical values can stand only once. Marks after values point to notes of the source that are not given here. Starred links: 1 amine or outer side, 2 acyl side, 3 side chain; linkers in the order of their positions; H or OH if unused. Positions of bridges follow the written chain, without caps; N, C: chain ends. Non-standard residues stand in square brackets, D forms with d. Residues, ends and D or L forms follow the SMILES beside them. *: point of attachment. dAsp(3R-OH) = N[C@@H](C(=O)O)[C@@H](O)C(=O)O; Palmitoleoyl = CCCCCC/C=C\CCCCCCCC(=O)*; X1 = NC[C@H](O)[C@@H](N[*:1])C(=O)[*:2]; X2 = CCC(C)(O)[C@H](N[*:1])C(=O)[*:2]; d(aIle) = CC[C@H](C)[C@@H](N)C(=O)O; Myristoyl = CCCCCCCCCCCCCC(=O)*; dOrn = NCCC[C@@H](N)C(=O)O; hSer = N[C@@H](CCO)C(=O)O
# Key:
# [1] = test system: A. baumannii ATCC 17978; assay: Thigh infection neutropenic mouse model, efficacy (CFU/thigh); format: in vivo, Acinetobacter baumannii; conditions: for Decrease (%) / Δ / CFU/thigh Time post inoculation 2, 26 h / Log (CFU/thigh) Time post inoculation 2, 26 h / CFU/thigh Time post inoculation 2, 26 h, Mean / Log (CFU/thigh) Time post inoculation 2, 26 h, Mean / Dilution (CFU/plate) 0 / Dilution (CFU/plate) 10^1 / Dilution (CFU/plate) 10^2 / Dilution (CFU/plate) 10^3 / Dilution (CFU/plate) 10^4 / Dilution (CFU/plate) 10^5 / Dilution (CFU/plate) 10^6: BID, q12h; for Decrease (%) / Δ / CFU/thigh Time post inoculation 2, 26 h / Log (CFU/thigh) Time post inoculation 2, 26 h / CFU/thigh Time post inoculation 2, 26 h, Mean / Log (CFU/thigh) Time post inoculation 2, 26 h, Mean: 26 h; for Decrease (%): decrease in counts compared to the vehicle group; for Δ: difference in bacterial counts relative to the baseline group (2 h initial counts); for CFU/thigh Time post inoculation 2, 26 h / Log (CFU/thigh) Time post inoculation 2, 26 h: individual animals; for CFU/thigh Time post inoculation 2, 26 h, Mean / Log (CFU/thigh) Time post inoculation 2, 26 h, Mean: mean of 5 animals; for Dilution (CFU/plate) 0 / Dilution (CFU/plate) 10^1 / Dilution (CFU/plate) 10^2 / Dilution (CFU/plate) 10^3 / Dilution (CFU/plate) 10^4 / Dilution (CFU/plate) 10^5 / Dilution (CFU/plate) 10^6: raw data; for Dilution (CFU/plate) 0: dilution 0, individual animals; for Dilution (CFU/plate) 10^1: dilution 10^1, individual animals; for Dilution (CFU/plate) 10^2: dilution 10^2, individual animals; for Dilution (CFU/plate) 10^3: dilution 10^3, individual animals; for Dilution (CFU/plate) 10^4: dilution 10^4, individual animals; for Dilution (CFU/plate) 10^5: dilution 10^5, individual animals; for Dilution (CFU/plate) 10^6: dilution 10^6, individual animals
# [2] = test system: Escherichia coli; format: cell-based
# [3] = test system: Staphylococcus aureus
# [4] = test system: Acinetobacter baumannii (ATCC 19606); conditions: for MIC: ATCC 19606
# [5] = test system: Klebsiella pneumoniae (ATCC BAA-1705); format: cell-based
# [6] = test system: A. baylyi; format: cell-based, Acinetobacter baylyi; conditions: for sensitivity of Δ1ptE A. baylyi strain: at 8 μg/mL; for MIC against A. baylyi compared with A. baumannii: nonpathogenic relative A. baylyi; for nature of growth inhibition: plating of inhibited wells from A. baylyi broth cultures
# [7] = test system: Enterococcus faecalis (ATCC 29212)
# [8] = test system: HEK-293 cells
# [9] = test system: mouse red blood cell
compound,measurement,setting,value
"CCCCCCCCCCCCCC(=O)N[C@H](CCCN)C(=O)N[C@@H](CO)C(=O)N[C@H](C(=O)N[C@@H](C(=O)N[C@@H](C(=O)N[C@@H]1C(=O)NCC(=O)N[C@@H](C(C)(O)CC)C(=O)N[C@H]([C@@H](C)CC)C(=O)N[C@@H](CCO)C(=O)N[C@@H](C)C(=O)N[C@H]([C@@H](C)CC)C(=O)N[C@@H](CCC(=O)O)C(=O)O[C@@H]1C)[C@@H](O)CN)[C@@H](O)C(=O)O)C(C)C (stereo partly drawn) [Compound 1, Turnercyclamycin A] (Myristoyl-[dOrn]SV[dAsp(3R-OH)][X1]TG[X2][d(aIle)][hSer]A[d(aIle)]E; ester 6-C)",Decrease (%),[1]; 6.25 mg/kg IV,27%
same,Δ,[1]; 6.25 mg/kg IV,2.27
same,"CFU/thigh Time post inoculation 2, 26 h",[1]; 6.25 mg/kg IV,4.59 × 10^7 CFU/thigh and 3.63 × 10^7 CFU/thigh and 4.62 × 10^7 CFU/thigh and 6.93 × 10^7 CFU/thigh and 7.71 × 10^7 CFU/thigh
same,"Log (CFU/thigh) Time post inoculation 2, 26 h",[1]; 6.25 mg/kg IV,7.66 Log (CFU/thigh) (2×) and 7.56 Log (CFU/thigh) and 7.84 Log (CFU/thigh) and 7.89 Log (CFU/thigh)
same,"CFU/thigh Time post inoculation 2, 26 h, Mean",[1]; 6.25 mg/kg IV,5.50 × 10^7 CFU/thigh
same,"Log (CFU/thigh) Time post inoculation 2, 26 h, Mean",[1]; 6.25 mg/kg IV,7.72 Log (CFU/thigh)
same,Dilution (CFU/plate) 0,[1]; 6.25 mg/kg IV,>300 CFU/plate
same,Dilution (CFU/plate) 10^1,[1]; 6.25 mg/kg IV,>300 CFU/plate
same,Dilution (CFU/plate) 10^2,[1]; 6.25 mg/kg IV,>300 CFU/plate
same,Dilution (CFU/plate) 10^3,[1]; 6.25 mg/kg IV,>300 CFU/plate
same,Dilution (CFU/plate) 10^4,[1]; 6.25 mg/kg IV,153 CFU/plate and 121 CFU/plate and 154 CFU/plate and 231 CFU/plate and 257 CFU/plate
same,Dilution (CFU/plate) 10^5,[1]; 6.25 mg/kg IV,21 CFU/plate and 9 CFU/plate and 16 CFU/plate and 24 CFU/plate and 26 CFU/plate
same,Dilution (CFU/plate) 10^6,[1]; 6.25 mg/kg IV,3 CFU/plate (2×) and 1 CFU/plate and 0 CFU/plate and 2 CFU/plate
same,decrease in bacterial CFU/thigh,"[1]; 12.5 mg/kg IV twice daily, p<0.05, CFU at 26 hours",98%
same,Decrease (%),[1]; 12.5 mg/kg IV,98%
same,Δ,[1]; 12.5 mg/kg IV,0.10
same,"CFU/thigh Time post inoculation 2, 26 h",[1]; 12.5 mg/kg IV,5.67 × 10^5 CFU/thigh and 7.02 × 10^6 CFU/thigh and 7.89 × 10^5 CFU/thigh and 1.32 × 10^5 CFU/thigh and 1.35 × 10^4 CFU/thigh
same,"Log (CFU/thigh) Time post inoculation 2, 26 h",[1]; 12.5 mg/kg IV,5.75 Log (CFU/thigh) and 6.85 Log (CFU/thigh) and 5.90 Log (CFU/thigh) and 5.12 Log (CFU/thigh) and 4.13 Log (CFU/thigh)
same,"CFU/thigh Time post inoculation 2, 26 h, Mean",[1]; 12.5 mg/kg IV,1.70 × 10^6 CFU/thigh
same,"Log (CFU/thigh) Time post inoculation 2, 26 h, Mean",[1]; 12.5 mg/kg IV,5.55* Log (CFU/thigh)
same,Dilution (CFU/plate) 0,[1]; 12.5 mg/kg IV,>300 CFU/plate
same,Dilution (CFU/plate) 10^1,[1]; 12.5 mg/kg IV,>300 CFU/plate (4×) and 45 CFU/plate
same,Dilution (CFU/plate) 10^2,[1]; 12.5 mg/kg IV,189 CFU/plate and >300 CFU/plate and 263 CFU/plate and 44 CFU/plate and 4 CFU/plate
same,Dilution (CFU/plate) 10^3,[1]; 12.5 mg/kg IV,12 CFU/plate and 234 CFU/plate and 24 CFU/plate and 2 CFU/plate and 0 CFU/plate
same,Dilution (CFU/plate) 10^4,[1]; 12.5 mg/kg IV,0 CFU/plate (2×) and 1 CFU/plate and 28 CFU/plate and 2 CFU/plate
same,Dilution (CFU/plate) 10^5,[1]; 12.5 mg/kg IV,0 CFU/plate (4×) and 1 CFU/plate
same,Dilution (CFU/plate) 10^6,[1]; 12.5 mg/kg IV,0 CFU/plate
same,clearing of bacterial CFU/thigh,"[1]; 25 mg/kg IV twice daily, CFU at 26 hours",99.99%
same,Decrease (%),[1]; 25 mg/kg IV,100%
same,Δ,[1]; 25 mg/kg IV,−1.65^#
same,"CFU/thigh Time post inoculation 2, 26 h",[1]; 25 mg/kg IV,5.91 × 10^3 CFU/thigh and 7.68 × 10^3 CFU/thigh and 8.76 × 10^3 CFU/thigh and 1.38 × 10^4 CFU/thigh and 1.89 × 10^3 CFU/thigh
same,"Log (CFU/thigh) Time post inoculation 2, 26 h",[1]; 25 mg/kg IV,3.77 Log (CFU/thigh) and 3.89 Log (CFU/thigh) and 3.94 Log (CFU/thigh) and 4.14 Log (CFU/thigh) and 3.28 Log (CFU/thigh)
same,"CFU/thigh Time post inoculation 2, 26 h, Mean",[1]; 25 mg/kg IV,7.61 × 10^3 CFU/thigh
same,"Log (CFU/thigh) Time post inoculation 2, 26 h, Mean",[1]; 25 mg/kg IV,3.80* Log (CFU/thigh)
same,Dilution (CFU/plate) 0,[1]; 25 mg/kg IV,197 CFU/plate and 256 CFU/plate and 292 CFU/plate and >300 CFU/plate and 63 CFU/plate
same,Dilution (CFU/plate) 10^1,[1]; 25 mg/kg IV,26 CFU/plate and 32 CFU/plate and 29 CFU/plate and 46 CFU/plate and 8 CFU/plate
same,Dilution (CFU/plate) 10^2,[1]; 25 mg/kg IV,3 CFU/plate (2×) and 1 CFU/plate (2×) and 4 CFU/plate
same,Dilution (CFU/plate) 10^3,[1]; 25 mg/kg IV,0 CFU/plate
same,Dilution (CFU/plate) 10^4,[1]; 25 mg/kg IV,0 CFU/plate
same,Dilution (CFU/plate) 10^5,[1]; 25 mg/kg IV,0 CFU/plate
same,Dilution (CFU/plate) 10^6,[1]; 25 mg/kg IV,0 CFU/plate
same,MIC90,[2],1 µg/mL
same,MIC90,[3],>64 µg/mL
same,decrease of Staphylococcus aureus growth,[3],50%
same,MIC90,[4],8 µg/mL
same,MIC,[4],8 µg/mL
same,MIC90,[5],2 µg/mL
same,sensitivity of Δ1ptE A. baylyi strain,[6],still sensitive
same,MIC against A. baylyi compared with A. baumannii,[6],same MIC
same,nature of growth inhibition,[6],"bactericidal, not bacteriostatic"
same,MIC90,[7],>64 µg/mL
"CCCCCC/C=C\CCCCCCCC(=O)N[C@H](CCCN)C(=O)N[C@@H](CO)C(=O)N[C@H](C(=O)N[C@@H](C(=O)N[C@@H](C(=O)N[C@@H]1C(=O)NCC(=O)N[C@@H](C(C)(O)CC)C(=O)N[C@H]([C@@H](C)CC)C(=O)N[C@@H](CCO)C(=O)N[C@@H](C)C(=O)N[C@H]([C@@H](C)CC)C(=O)N[C@@H](CCC(=O)O)C(=O)O[C@@H]1C)[C@@H](O)CN)[C@@H](O)C(=O)O)C(C)C (stereo partly drawn) [Compound 2, Turnercyclamycin B] (Palmitoleoyl-[dOrn]SV[dAsp(3R-OH)][X1]TG[X2][d(aIle)][hSer]A[d(aIle)]E; ester 6-C)",IC50 against HEK-293,[8],failed to calculate an IC50 value
same,MIC90,[2],1 µg/mL
same,MIC90,[3],>64 µg/mL
same,decrease of Staphylococcus aureus growth,[3],50%
same,MIC90,[4],8 µg/mL
same,MIC,[4],8 µg/mL
same,"hemolytic activity, no activity up to",[9],> 64 µg/mL
same,MIC90,[5],2 µg/mL
same,sensitivity of Δ1ptE A. baylyi strain,[6],still sensitive
same,MIC against A. baylyi compared with A. baumannii,[6],same MIC
same,nature of growth inhibition,[6],"bactericidal, not bacteriostatic"
same,MIC90,[7],>64 µg/mL
